Source: doi:10.1101/2023.10.20.563248v1 (biorxiv, 2023)

Tests used:
Conditions in all cases: 1 µM; inhibitor
[1] = biological target: CAMKK2 (Homo sapiens, UniProt Q96RR4)
[2] = biological target: GSK3A (Homo sapiens, UniProt P49840)
[3] = biological target: WNK3 (Homo sapiens, UniProt Q9BYP7)
[4] = biological target: IKKa (Homo sapiens, UniProt O15111)
[5] = biological target: CK1a (Homo sapiens, UniProt P48729)
[6] = biological target: FGFR3 (Homo sapiens, UniProt P22607)
[7] = biological target: CDK9/CycT1 (Homo sapiens, UniProt P50750)
Sequence of CDK9/CycT1 (P50750 whole entry): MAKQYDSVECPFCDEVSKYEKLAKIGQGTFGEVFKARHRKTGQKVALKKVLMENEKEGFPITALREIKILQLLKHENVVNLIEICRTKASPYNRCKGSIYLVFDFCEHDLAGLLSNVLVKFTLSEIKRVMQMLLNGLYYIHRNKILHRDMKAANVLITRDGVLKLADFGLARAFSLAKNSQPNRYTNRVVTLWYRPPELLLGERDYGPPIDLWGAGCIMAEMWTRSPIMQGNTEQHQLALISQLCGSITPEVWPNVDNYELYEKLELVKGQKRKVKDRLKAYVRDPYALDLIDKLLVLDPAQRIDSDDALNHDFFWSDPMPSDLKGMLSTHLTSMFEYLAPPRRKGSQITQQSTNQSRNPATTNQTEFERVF
Sequence of CDK9/CycT1 (O60563 whole entry partner): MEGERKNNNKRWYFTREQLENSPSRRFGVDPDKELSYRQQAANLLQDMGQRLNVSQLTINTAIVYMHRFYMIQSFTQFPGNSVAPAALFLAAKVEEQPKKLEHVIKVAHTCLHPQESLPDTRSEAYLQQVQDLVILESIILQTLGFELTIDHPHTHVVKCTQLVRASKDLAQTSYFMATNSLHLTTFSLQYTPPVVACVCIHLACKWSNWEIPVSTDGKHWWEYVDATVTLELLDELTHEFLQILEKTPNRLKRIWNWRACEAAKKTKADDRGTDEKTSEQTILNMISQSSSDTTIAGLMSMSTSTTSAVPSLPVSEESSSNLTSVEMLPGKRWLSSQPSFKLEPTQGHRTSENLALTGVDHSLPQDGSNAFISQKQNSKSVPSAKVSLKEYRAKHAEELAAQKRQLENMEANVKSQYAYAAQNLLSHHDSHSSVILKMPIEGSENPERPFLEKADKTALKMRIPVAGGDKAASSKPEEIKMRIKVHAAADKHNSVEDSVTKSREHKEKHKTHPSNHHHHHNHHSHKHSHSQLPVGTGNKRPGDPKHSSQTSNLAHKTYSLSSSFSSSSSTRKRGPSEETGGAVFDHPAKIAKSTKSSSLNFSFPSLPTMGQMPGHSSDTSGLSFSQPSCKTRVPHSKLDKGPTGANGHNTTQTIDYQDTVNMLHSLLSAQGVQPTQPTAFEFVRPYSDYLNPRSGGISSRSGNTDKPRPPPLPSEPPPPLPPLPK

[8] = biological target: JAK3 (Homo sapiens, UniProt P52333)
[9] = biological target: FER (Homo sapiens, UniProt P16591)
[10] = biological target: TEC (Homo sapiens, UniProt P42680)
[11] = biological target: SIK3 (Homo sapiens, UniProt Q9Y2K2)
Sequence of SIK3 (Q9Y2K2 whole entry): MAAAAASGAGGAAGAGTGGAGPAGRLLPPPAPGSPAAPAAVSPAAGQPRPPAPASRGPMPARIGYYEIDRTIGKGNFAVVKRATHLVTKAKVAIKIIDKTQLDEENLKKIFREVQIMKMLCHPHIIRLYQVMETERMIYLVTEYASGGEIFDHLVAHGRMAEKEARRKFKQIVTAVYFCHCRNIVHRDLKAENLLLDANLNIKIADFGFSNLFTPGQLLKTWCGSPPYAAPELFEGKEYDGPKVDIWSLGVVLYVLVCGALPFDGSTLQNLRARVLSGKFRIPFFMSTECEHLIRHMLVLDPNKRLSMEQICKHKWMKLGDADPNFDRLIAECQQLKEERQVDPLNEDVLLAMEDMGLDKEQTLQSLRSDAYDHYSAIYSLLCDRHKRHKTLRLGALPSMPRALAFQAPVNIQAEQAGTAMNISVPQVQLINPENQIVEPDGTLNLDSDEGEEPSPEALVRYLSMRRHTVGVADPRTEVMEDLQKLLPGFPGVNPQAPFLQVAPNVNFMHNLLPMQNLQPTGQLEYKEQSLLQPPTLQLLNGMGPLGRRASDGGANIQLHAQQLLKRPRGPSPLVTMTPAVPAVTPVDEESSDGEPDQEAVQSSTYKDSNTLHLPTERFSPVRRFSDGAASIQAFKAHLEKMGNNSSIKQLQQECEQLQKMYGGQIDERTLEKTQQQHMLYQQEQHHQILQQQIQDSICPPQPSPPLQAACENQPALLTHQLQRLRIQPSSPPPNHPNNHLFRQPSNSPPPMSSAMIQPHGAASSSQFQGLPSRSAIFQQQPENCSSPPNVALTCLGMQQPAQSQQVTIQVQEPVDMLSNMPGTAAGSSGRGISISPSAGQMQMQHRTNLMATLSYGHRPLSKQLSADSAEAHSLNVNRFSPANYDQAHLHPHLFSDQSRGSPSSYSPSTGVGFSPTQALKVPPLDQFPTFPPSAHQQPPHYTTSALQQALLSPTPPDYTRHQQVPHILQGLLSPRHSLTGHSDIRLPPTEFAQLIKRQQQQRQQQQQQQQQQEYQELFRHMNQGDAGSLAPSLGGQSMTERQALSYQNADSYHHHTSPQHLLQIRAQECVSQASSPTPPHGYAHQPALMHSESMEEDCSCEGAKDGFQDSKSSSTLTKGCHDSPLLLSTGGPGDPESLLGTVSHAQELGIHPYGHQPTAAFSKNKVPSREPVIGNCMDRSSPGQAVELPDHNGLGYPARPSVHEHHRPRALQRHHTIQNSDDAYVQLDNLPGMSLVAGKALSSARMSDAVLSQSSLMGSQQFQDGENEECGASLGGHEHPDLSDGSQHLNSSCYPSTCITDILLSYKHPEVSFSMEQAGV

[12] = biological target: CK1e (Homo sapiens, UniProt P49674)
[13] = biological target: CDK16 (Homo sapiens, UniProt Q00536)
[14] = biological target: IKKe (Homo sapiens, UniProt Q14164)
[15] = biological target: PKCa (Homo sapiens, UniProt P17252)
[16] = biological target: PKN3 (Homo sapiens, UniProt Q6P5Z2)
[17] = biological target: INSR (Homo sapiens, UniProt P06213)
[18] = biological target: RIPK4 (Homo sapiens, UniProt P57078)
[19] = biological target: PLK1 (Homo sapiens, UniProt P53350)
[20] = biological target: JNK3 (Homo sapiens, UniProt P53779)
[21] = biological target: CDC42BPA (Homo sapiens, UniProt Q5VT25)
[22] = biological target: MLK4 (Homo sapiens, UniProt Q5TCX8)
[23] = biological target: JAK2 (Homo sapiens, UniProt O60674)
[24] = biological target: CAMK2A (Homo sapiens, UniProt Q9UQM7)
Sequence of CAMK2A (Q9UQM7 whole entry): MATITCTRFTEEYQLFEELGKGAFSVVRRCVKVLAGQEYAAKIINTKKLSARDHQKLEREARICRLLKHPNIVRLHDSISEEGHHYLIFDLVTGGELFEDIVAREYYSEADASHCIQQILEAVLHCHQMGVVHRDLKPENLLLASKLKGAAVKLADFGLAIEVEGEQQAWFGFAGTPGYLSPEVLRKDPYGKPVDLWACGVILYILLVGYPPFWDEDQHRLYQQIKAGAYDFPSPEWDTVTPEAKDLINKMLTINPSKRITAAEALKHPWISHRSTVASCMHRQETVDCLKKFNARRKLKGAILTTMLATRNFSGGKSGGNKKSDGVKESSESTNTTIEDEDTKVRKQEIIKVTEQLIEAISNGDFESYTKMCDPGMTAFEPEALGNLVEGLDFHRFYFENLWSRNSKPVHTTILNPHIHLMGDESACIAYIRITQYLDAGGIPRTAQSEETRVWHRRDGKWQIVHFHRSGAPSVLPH

[25] = biological target: BMX (Homo sapiens, UniProt P51813)
[26] = biological target: MKNK1 (Homo sapiens, UniProt Q9BUB5)
[27] = biological target: TSSK1 (Homo sapiens, UniProt Q9BXA7)
[28] = biological target: PKCe (Homo sapiens, UniProt Q02156)
[29] = biological target: PKA (Homo sapiens, UniProt P17612)
[30] = biological target: ERK2 (Homo sapiens, UniProt P28482)
[31] = biological target: RPS6KA3 (Homo sapiens, UniProt P51812)

Sequence of CAMKK2 (Q96RR4 whole entry): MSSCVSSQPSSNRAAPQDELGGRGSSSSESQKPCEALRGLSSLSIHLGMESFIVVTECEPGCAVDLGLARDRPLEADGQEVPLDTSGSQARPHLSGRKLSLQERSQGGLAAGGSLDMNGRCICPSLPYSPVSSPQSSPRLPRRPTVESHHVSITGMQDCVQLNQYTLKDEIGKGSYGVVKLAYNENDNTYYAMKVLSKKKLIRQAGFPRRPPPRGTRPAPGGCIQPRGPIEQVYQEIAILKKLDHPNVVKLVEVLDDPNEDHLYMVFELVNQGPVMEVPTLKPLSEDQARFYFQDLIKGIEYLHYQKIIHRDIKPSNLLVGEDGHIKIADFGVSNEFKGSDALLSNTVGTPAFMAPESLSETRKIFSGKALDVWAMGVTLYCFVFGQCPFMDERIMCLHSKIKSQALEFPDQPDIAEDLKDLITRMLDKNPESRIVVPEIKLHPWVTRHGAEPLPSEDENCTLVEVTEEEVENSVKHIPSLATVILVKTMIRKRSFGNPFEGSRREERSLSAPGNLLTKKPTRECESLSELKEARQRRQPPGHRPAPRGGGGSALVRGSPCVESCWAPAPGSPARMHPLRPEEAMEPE
Sequence of GSK3A (P49840 whole entry): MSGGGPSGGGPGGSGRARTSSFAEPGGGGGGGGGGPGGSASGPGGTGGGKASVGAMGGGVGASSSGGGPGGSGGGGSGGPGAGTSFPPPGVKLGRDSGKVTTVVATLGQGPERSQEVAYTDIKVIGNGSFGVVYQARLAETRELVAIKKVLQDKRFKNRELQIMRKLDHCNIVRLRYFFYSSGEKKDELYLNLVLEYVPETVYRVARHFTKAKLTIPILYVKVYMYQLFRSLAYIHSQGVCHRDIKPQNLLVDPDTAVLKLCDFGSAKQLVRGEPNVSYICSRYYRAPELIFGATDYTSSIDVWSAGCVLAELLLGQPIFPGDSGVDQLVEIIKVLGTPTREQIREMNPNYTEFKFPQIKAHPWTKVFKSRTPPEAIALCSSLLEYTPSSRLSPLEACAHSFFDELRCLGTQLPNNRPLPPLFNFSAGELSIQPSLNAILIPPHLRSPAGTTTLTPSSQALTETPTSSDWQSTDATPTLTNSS
Sequence of CK1a (P48729 whole entry): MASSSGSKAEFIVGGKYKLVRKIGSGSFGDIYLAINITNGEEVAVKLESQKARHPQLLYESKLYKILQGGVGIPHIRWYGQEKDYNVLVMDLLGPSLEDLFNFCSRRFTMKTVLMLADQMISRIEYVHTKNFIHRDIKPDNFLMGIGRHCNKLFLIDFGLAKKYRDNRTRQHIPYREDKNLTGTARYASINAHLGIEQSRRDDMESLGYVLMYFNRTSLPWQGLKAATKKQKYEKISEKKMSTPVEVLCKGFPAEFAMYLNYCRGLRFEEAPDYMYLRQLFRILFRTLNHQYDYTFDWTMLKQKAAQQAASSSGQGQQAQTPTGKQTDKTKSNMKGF

Structure (SMILES): O=C1NCCCCCNc2nc(c3ccccc3n2)Nc2cc1[nH]n2 [21c, (Z)-3^1H-2,5,11-triaza-1(4,2)-quinazolina-3(3,5)-pyrazolacycloundecaphan-4-one]
- 21c Remaining activity, percent of control [%] [1]: 90.8%
- 21c Remaining activity, percent of control [%] [2]: 67.3%
- 21c Remaining activity, percent of control [%] [3]: 98.5%
- 21c Remaining activity, percent of control [%] [4]: 80.7%
- 21c Remaining activity, percent of control [%] [5]: 102.0%
- 21c Remaining activity, percent of control [%] [6]: 99.8%
- 21c Remaining activity, percent of control [%] [7]: 85.7%
- 21c Remaining activity, percent of control [%] [8]: 115.4%
- 21c Remaining activity, percent of control [%] [9]: 101.7%
- 21c Remaining activity, percent of control [%] [10]: 91.4%
- 21c Remaining activity, percent of control [%] [11]: 72.1%
- 21c Remaining activity, percent of control [%] [12]: 103.1%
- 21c Remaining activity, percent of control [%] [13]: 94.1%
- 21c Remaining activity, percent of control [%] [14]: 103.6%
- 21c Remaining activity, percent of control [%] [15]: 107.7%
- 21c Remaining activity, percent of control [%] [16]: 92.6%
- 21c Remaining activity, percent of control [%] [17]: 98.0%
- 21c Remaining activity, percent of control [%] [18]: 101.1%
- 21c Remaining activity, percent of control [%] [19]: 89.3%
- 21c Remaining activity, percent of control [%] [20]: 84.9%
- 21c Remaining activity, percent of control [%] [21]: 107.0%
- 21c Remaining activity, percent of control [%] [22]: 99.1%
- 21c Remaining activity, percent of control [%] [23]: 96.2%
- 21c Remaining activity, percent of control [%] [24]: 110.6%
- 21c Remaining activity, percent of control [%] [25]: 84.8%
- 21c Remaining activity, percent of control [%] [26]: 97.3%
- 21c Remaining activity, percent of control [%] [27]: 95.8%
- 21c Remaining activity, percent of control [%] [28]: 86.5%
- 21c Remaining activity, percent of control [%] [29]: 96.3%
- 21c Remaining activity, percent of control [%] [30]: 90.7%
- 21c Remaining activity, percent of control [%] [31]: 87.3%
